Data on 10 molecules can be found in US11931412B2, “JAK1 inhibitors and uses thereof” (Washington University, priority 2016, dated 2024).

One experiment concerns wild type (WT) mice. As to the kind of experiment: Topical MC903 treatment versus vehicle (AD-like inflammation and itch). The experiment is classed as in vivo, mouse. The conditions noted are these: daily topical to ears, compared to vehicle (EtOH). As to the method: (§1) For induction of AD-like inflammation and itch, mice were topically treated once daily with 2 nmol of MC903 (calcipotriol, Tocris Bioscience) for 7 days or 1 nmol of MC903 for 12 days on both ears in 20 μL of ethanol (vehicle) as previously described (Kim et al., 2013a, 2014, Siracusa et al., 2011, 2013b). Ear thickness measurements were performed daily with dial calipers as previously described (Kim et al., 2013a, 2014). At the end of the MC903 treatment, murine ear skin tissues were fixed in 4% paraformaldehyde (PFA) and embedded in paraffin before sectioning and staining with Hematoxylin & Eosin (H&E). Histology score was determined by the following formula using ImageJ analysis software (NIH) as previously described: (total number of lymphocytes per high power field (HPF)+thickness of the epidermis measured in microns from the basement membrane to the top of the stratum corneum) divided by 100 (Kim et al., 2014). All images were captured with a NanoZoomer 2.0-HT System (Hamamatsu). Murine disease and behavioral assessment data (below) were derived from two to three independent experiments. For behavioral assessments, mice were first acclimated to the recording room and behavior chambers at least one day prior to testing. On the day of testing, mice were again acclimated to the recording room and behavior chambers and then video recorded. The video recordings were then manually scored for number of scratching bouts per 30 minute block. One scratching bout was defined as one instance of lifting the hind paw from the floor, scratching, and returning the paw to the floor or placing the paw in the animal's mouth. All behavioral tests were performed on sex- and age-matched adult mice (8-12 weeks old).

The next experiment relates to mouse DRG neurons. As to the kind of experiment: Ratiometric calcium imaging of cultured murine DRG neurons. It counts as cell-based. The settings on record: for responsive neurons as a percentage of total mouse DRG neurons: cytokines 300 nM, histamine 50 μM, responsive = change in fluorescence ratio >10% of baseline; for calcium response of DRG neurons to stimulation: ex vivo stimulation, recombinant murine cytokine 300 nM; for cytokine-responsive neurons that also responded to IL-31 or histamine: serial stimulation with the cytokine, then IL-31 and histamine. As for the experimental part: Murine DRG neurons were isolated and cultured using a previously published protocol with slight modification (Malin et al., 2007). Briefly, laminectomies were performed on mice and bilateral DRG were removed. After removal of connective tissues, DRG were transferred to 1 mL Ca^2+/Mg^2+-free Hank's Balanced Salt Solution (HBSS) containing 1 μL saturated NaHCO3, 0.35 mg L-cysteine, and 20 U papain (Worthington) and incubated at 37° C. for 20 min. The suspension was centrifuged, and the supernatant was removed and replaced with 1 mL Ca^2+/Mg^2+-free HBSS containing 3.75 mg collagenase type II (Worthington) and 7.5 mg dispase (Worthington) and incubated at 37° C. for 20 min. After digestion, neurons were gently triturated, pelleted, and then resuspended in Neurobasal-A medium containing 2% B-27 supplement (Gibco), 100 U/mL penicillin plus 100 μg/mL streptomycin (Sigma), 100 ng/mL nerve growth factor (Sigma), and 10% heat-inactivated FBS (Sigma). Neurons were then plated on a 12 mm glass coverslip pre-coated with poly-L-lysine (Sigma) and laminin (Sigma) and cultured under a humidified atmosphere of 5% CO2 at 37° C. for 18-24 hours before use.
Cultured DRG neurons were loaded with 4 μM Fura-2 AM (Life Technologies) in overnight DRG culture medium at 37° C. for 45 minutes. Cells were then washed three times and incubated in calcium imaging buffer (130 mM NaCl, 3 mM KCl, 2.5 mM CaCl2, 0.6 mM MgCl2, 10 mM HEPES, 10 mM glucose, 1.2 mM NaHCO3, pH 7.45) at room temperature for 30 minutes before use. All recombinant murine cytokines (IL-4, IL-5, and IL-13: Peprotech, IL-31: Bristol-Myers Squibb) were used at 300 nM, while histamine (Sigma) and capsaicin (Sigma) were used at 50 μM and 300 nM, respectively. Only sensory neurons that responded to a final challenge of 100 mM KCl were used in analyses. Fluorescence was recorded at 340 nm and 380 nm excitation wavelengths (F340, F380) using an inverted Nikon Ti-E microscope with NIS-Elements imaging software (Nikon Instruments). Fluorescence ratios (F340/F380) were normalized to baseline and used to reflect changes in intracellular Ca^2+ and neuronal activation upon stimulation. […] Data were derived from two to three independent experiments.

The subject of a further experiment is CIP patient (Case 2). The experiment is described as follows: Clinical history of CIP patient Case 2 (prior treatment). The conditions noted are these: course of oral prednisone prescribed for polymyalgia rheumatica. The experiment is classed as in vivo, human. As to the method:
This example describes four elderly CIP patients with evidence of marked immune dysregulation after exclusion of other cutaneous and systemic causes of pruritus.
TABLE 2 Legend: (a) Average and peak Numerical Rating Scale (NRS) itch scores at the time of presentation to our clinic are noted, respectively. (b) A thorough workup was performed to establish the diagnosis of CIP by exclusion of other cutaneous and systemic causes of pruritus, including psychiatric and neurologic conditions, renal failure, biliary dysfunction, thyroid abnormalities, HIV/AIDS, hepatitis B, and hepatitis C. […] (d) Outside of two episodes of septic arthritis arising from knee replacement surgery, the patient had no history of persistent or recurrent infections, autoimmunity, or malignancy.

Another experiment has as its system MC903-treated WT mice. As to the kind of experiment: Pharmacologic JAK inhibition in MC903-induced AD-associated itch model. The experiment is classed as in vivo, mouse. As for the experimental part:
as §1, with “old). Stock ruxolitinib (Selleck Chemicals) solutions were prepared in DMSO (Sigma) per the manufacturer's instructions. For systemic treatments, mice treated twice daily with 100 μg ruxolitinib diluted in 100 μl PBS by intraperitoneal (i.p.) injection. For intrathecal (i.t.) ruxolitinib treatments, mice were injected 24 hours before behavioral assays with 10 μg ruxolitinib diluted in 10 μl PBS. Control mice were injected with appropriate vehicle controls (DMSO in PBS) of equivalent volumes.” for “old).”

A further experiment deals with patients with CIP. As to the kind of experiment: NRS itch scoring of CIP patients under treatment.
The subject of another experiment is AD patients. The settings on record: cited from earlier work.
The mark [1] stands for this setting: i.p. 100 μg twice daily during MC903 treatment, Day 7.

“Also recorded” adds a separate entry of the source.

For the molecule `C=C1/C(=C\C=C2/CCC[C@]3(C)[C@@H]([C@H](C)/C=C/[C@@H](O)C4CC4)CC[C@@H]23)C[C@@H](O)C[C@@H]1O` [MC903, calcipotriol], in the experiment with wild type (WT) mice, the “histologic score of inflammation” value was “higher”; the “itch phenotype by scratching bouts over time” value was “marked chronic itch phenotype”; the “skin inflammation measured by ear skin thickening and histologic features” value is “robust skin inflammation”.

With `NCCc1c[nH]cn1` [histamine], the “responsive neurons as a percentage of total mouse DRG neurons” value (“responsive neurons as a percentage” for short) in the experiment with mouse DRG neurons was around 25%.

With `C[C@]12C=CC(=O)C=C1CC[C@@H]1[C@@H]2C(=O)C[C@@]2(C)[C@H]1CC[C@]2(O)C(=O)CO` [prednisone], in the experiment on CIP patient (Case 2), the muscle weakness result was “improved” and the pruritus entry is given as “did not resolve”.

Consider `N#CC[C@H](C1CCCC1)n1cc(-c2ncnc3[nH]ccc23)cn1` [ruxolitinib], for which, in the experiment with MC903-treated WT mice (setting [1]), the ear skin thickening result was “statistically significant, but only slight, reduction”; the “histologic parameters of disease” value is “statistically significant, but only slight, reduction”; the scratching bouts result is on record as “significantly reduced”. The “peripheral skin inflammation (ear thickness, histopathology, histology score)” value with MC903-treated WT mice (single intrathecal (i.t.) injection 10 μg) was “no effect”. The scratching bouts result in the experiment with MC903-treated WT mice (single intrathecal (i.t.) injection 10 μg, 24 hours before behavioral assay) is “marked reduction”.

`C[C@@H]1CCN(C(=O)CC#N)C[C@@H]1N(C)c1ncnc2[nH]ccc12` [tofacitinib]: in the experiment on patients with CIP (CIP patients (N=5), 5 mg by mouth twice daily, one month), the “NRS itch score / itch symptoms” value is “marked improvement; also recorded: improved significantly; also recorded: dramatic improvement”. Further, the “daily itch scores (NRS), single subject” value in the experiment with patients with CIP (one CIP subject over 70 days, cyclosporine alone, then switched to JAK inhibitor) is “significant improvement”. Also, the “itch symptoms in AD patients” value in the experiment with AD patients (pilot studies and Phase II clinical trials) was “rapid and significant reduction”.

As to “IL-4: recombinant murine IL-4 (Peprotech)”, in the experiment with mouse DRG neurons, the “responsive neurons as a percentage” value was 4.1±0.5%, the “calcium response of DRG neurons to stimulation” value (“calcium response of DRG neurons” for short) is “rapid rise of intracellular calcium in a subset of neurons” and the “cytokine-responsive neurons that also responded to IL-31 or histamine” value stood at 88.9%.

Turning to “dupilumab: an anti-IL-4Rα monoclonal antibody”, the “disease and itch severity in AD patients” value in the experiment with AD patients (Phase II and III clinical trials) was “remarkable improvement”.

B1: IL-13: recombinant murine IL-13 (Peprotech) (protein, UniProt P20109 19-131, looked up)
Interleukin-13: APGPVPRSVSLPLTLKELIEELSNITQDQTPLCNGSMVWSVDLAAGGFCVALDSLTNISNCNAIYRTQRILHGLCNRKAPTTVSSLPDTKIEVAHFITKLLSYTKQLFRHGPF
For B1, in the experiment on mouse DRG neurons, the “responsive neurons as a percentage” value is on record as 3.3±0.8%, the “calcium response of DRG neurons” value is on record as “rapid rise of intracellular calcium in a subset of neurons” and the “cytokine-responsive neurons that also responded to IL-31 or histamine” value turned out to be 75.0%.

B2: IL-5: recombinant murine IL-5 (Peprotech) (protein, UniProt P04401 21-133, looked up)
Interleukin-5: MEIPMSTVVKETLTQLSAHRALLTSNETMRLPVPTHKNHQLCIGEIFQGLDILKNQTVRGGTVEMLFQNLSLIKKYIDRQKEKCGEERRRTRQFLDYLQEFLGVMSTEWAMEG
B2: the “calcium response of DRG neurons” value in the experiment on mouse DRG neurons was “no responses; also recorded: does not activate”.

B3: IL-31: recombinant murine IL-31 (Bristol-Myers Squibb), known cytokine pruritogen (protein, UniProt Q6EAL8 24-163, looked up)
Interleukin-31: TCSLSFGAPISKEDLRTTIDLLKQESQDLYNNYSIKQASGMSADESIQLPCFSLDREALTNISVIIAHLEKVKVLSENTVDTSWVIRWLTNISCFNPLNLNISVPGNTDESYDCKVFVLTVLKQFSNCMAELQAKDNTTC
For B3, in the experiment with mouse DRG neurons, the “responsive neurons as a percentage” value is “approximately 5%”.
